Measurements published in US20080221134A1, “8-ALKYNYLXANTHINES AND DERIVATIVES” (priority 2006, published 2008).
Read-outs that look alike come from different tables or passages of the source.

How the values were obtained:
[1] = target: T1, Rat A1 AR (Rattus norvegicus, UniProt P25099); assay: Radioligand binding assay 1, rat A1 adenosine receptor; conditions: rat cortex, [3H]CCPA
T1 construct: Rat brain preparations were used for A1- and A2A adenosine receptor (AR); from tissue; host or cells: rat cortex
T1 sequence (P25099 1-326): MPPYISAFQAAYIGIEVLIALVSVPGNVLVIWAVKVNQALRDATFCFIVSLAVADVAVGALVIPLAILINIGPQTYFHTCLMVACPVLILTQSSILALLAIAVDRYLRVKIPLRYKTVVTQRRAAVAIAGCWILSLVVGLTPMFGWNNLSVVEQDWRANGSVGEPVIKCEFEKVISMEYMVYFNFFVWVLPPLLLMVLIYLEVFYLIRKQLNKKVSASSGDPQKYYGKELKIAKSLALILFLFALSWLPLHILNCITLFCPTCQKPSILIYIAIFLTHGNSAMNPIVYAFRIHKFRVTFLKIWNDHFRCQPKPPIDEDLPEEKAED
Experimental: (§1) Rat brain preparations were used for A1- and A2A adenosine receptor (AR) and human recombinant cell samples for A1-, A2A- and A3 adenosine receptor radioligand binding studies. Affinity and selectivity was tested in displacement experiments with following radioligands: [^3H]CCPA for A1-adenosine receptors, [^3H]MSX-2 for A2A-receptors and [^3H]PSB-11 for A3-receptors. Results of these experiments are depicted in table 2b (human data) and table 2a (rat data). Radioligand binding test systems are e.g. generally described by Muller et al., Curr. Pharm. Des., 1996, 2, 501 and Weyler et al., ChemMedChem 2006, 1, 891 and references cited therein) These documents are incorporated herein by reference.

[2] = target: T2, Rat A2A AR (Rattus norvegicus, UniProt P30543); assay: Radioligand binding assay 1, rat A2A adenosine receptor; conditions: rat striatum, [3H]MSX-2
T2 construct: A2A adenosine receptors from rat striatum; from tissue; host or cells: rat striatum
Experimental: as §1

[3] = target: T3, A2A-adenosine receptor human recombinant (Homo sapiens, UniProt P29274); assay: Radioligand binding assay 1, human recombinant A2A adenosine receptor
T3 construct: expressed in transfected cells
Experimental: as §1

[4] = human recombinant, [3H]MSX-2, read-out: A2A-adenosine receptor human recombinant [3H] MSX-2 Ki

T3 sequence (P29274 whole entry): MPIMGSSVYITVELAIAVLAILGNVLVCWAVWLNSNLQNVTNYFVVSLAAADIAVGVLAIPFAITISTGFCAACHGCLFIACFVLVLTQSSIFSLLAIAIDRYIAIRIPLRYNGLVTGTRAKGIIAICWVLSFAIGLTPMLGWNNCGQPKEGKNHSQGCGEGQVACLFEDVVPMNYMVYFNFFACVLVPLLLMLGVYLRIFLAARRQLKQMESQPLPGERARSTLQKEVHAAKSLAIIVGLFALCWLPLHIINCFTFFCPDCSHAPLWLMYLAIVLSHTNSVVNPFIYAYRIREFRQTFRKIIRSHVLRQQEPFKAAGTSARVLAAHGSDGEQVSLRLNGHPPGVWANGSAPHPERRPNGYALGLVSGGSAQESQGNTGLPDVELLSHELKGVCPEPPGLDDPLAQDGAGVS
T2 sequence (P30543 whole entry): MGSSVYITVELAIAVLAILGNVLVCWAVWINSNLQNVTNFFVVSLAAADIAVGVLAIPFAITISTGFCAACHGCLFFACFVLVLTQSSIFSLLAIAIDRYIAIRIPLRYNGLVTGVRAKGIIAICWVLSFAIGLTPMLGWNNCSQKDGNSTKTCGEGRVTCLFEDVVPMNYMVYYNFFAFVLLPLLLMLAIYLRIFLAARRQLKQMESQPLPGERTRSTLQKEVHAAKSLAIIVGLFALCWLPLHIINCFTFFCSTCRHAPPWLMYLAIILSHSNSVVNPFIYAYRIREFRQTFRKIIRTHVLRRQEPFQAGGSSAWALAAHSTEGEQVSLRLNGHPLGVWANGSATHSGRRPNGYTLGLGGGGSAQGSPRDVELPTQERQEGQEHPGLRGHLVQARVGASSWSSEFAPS

| Structure (SMILES) | Ki [1] | Ki [2] | Ki [3, 4] | Ki ([3]; no full inhibition curve due to limited water-solubility, read-out: A2A-adenosine receptor human recombinant [3H] MSX-2 Ki, calculated by extrapolation) |
| --- | --- | --- | --- | --- |
| C#CCn1c(=O)c2c(nc(C#Cc3cccc(OC)c3)n2C)n(C)c1=O [drawing 456] | > 10000 nM | 30.9 ± 8 nM | – | – |
| C#CCn1c(=O)c2c(nc(C#Cc3cccc(Cl)c3)n2C)n(C)c1=O [drawing 461] | > 10000 nM | 46 ± 9 nM | – | – |
| C#CCn1c(=O)c2c(nc(C#Cc3ccc(OC)c(OC)c3)n2C)n(CCOCC)c1=O | > 1000 nM | 35.6 ± 14.1 nM | – | – |
| C#CCn1c(=O)c2c(nc(C#Cc3cccc(OC)c3)n2CC#CC)n(C)c1=O | 96 ± 16.4 nM | 36.2 ± 4.5 nM | – | – |
| C#CCn1c(=O)c2c(nc(C#Cc3ccc(OC)cc3)n2C)n(C)c1=O | > 10000 nM | 123 ± 38 nM | – | – |
| C#CCn1c(=O)c2c(nc(C#Cc3cccc(C)c3)n2C)n(CC)c1=O [drawing 486] | > 10000 nM | 76.3 ± 17.1 nM | – | – |
| C#CCn1c(=O)c2c(nc(C#Cc3cc(C)c(C)cc3C)n2C)n(C)c1=O | > 10000 nM | 4340 ± 840 nM | – | – |
| C#CCn1c(=O)c2c(nc(C#Cc3cccc(OC(C)=O)c3)n2C)n(C)c1=O [drawing 472] | 1170 ± 731 nM | 140 ± 12 nM | – | – |
| C#CCn1c(=O)c2c(nc(C#Cc3cccc(OC)c3)n2C)n(CC=C)c1=O [drawing 571] | – | – | 35.6 ± 10.9 nM | – |
| C#CCn1c(=O)c2c(nc(C#Cc3ccc(OC)c(OC)c3)n2C)n(CC(=O)OC)c1=O [drawing 546] | 286 ± 11 nM | 36.5 ± 6.1 nM | – | – |
| C#CCn1c(=O)c2c(nc(C#Cc3ccsc3)n2C)n(CC)c1=O [drawing 599] | – | – | 82.5 nM | – |
| C#CCn1c(=O)c2c(nc(C#Cc3ccc(OC)c(OC)c3)n2C)n(CC(=O)OCC)c1=O | ≥ 1000 nM | 167 ± 82 nM | – | – |
| C#CCn1c(=O)c2c(nc(C#Cc3ccc(OC)c(OC)c3)n2C)n(C(C)C)c1=O [drawing 516] | ≥ 1000 nM | 118 ± 19 nM | – | – |
| C#CCn1c(=O)c2c(nc(C#Cc3ccc(OC)c(OC)c3)n2C)n(CCO)c1=O [drawing 499] | > 1000 nM | 45.5 ± 10.4 nM | – | – |
| C#Cn1c(=O)c2c(nc(C#Cc3ccc(Cl)c(Cl)c3)n2C)n(C)c1=O | > 1000 nM | > 1000 nM | – | – |
| C#CCn1c(=O)c2c(nc(C#Cc3ccc(OC)c(OC)c3)n2C)n(CCNC)c1=O | ≥ 1000 nM | 134 ± 16 nM | – | – |
| C#CCn1c(=O)c2c(nc(C#Cc3ccc(OC)c(OC)c3)n2C)n(Cc2ccno2)c1=O | > 1000 nM | 17.9 ± 5.5 nM | – | – |
| C#CCn1c(=O)c2c(nc(C#Cc3ccc(OC)c(OC)c3)n2C)n(CCOC)c1=O [drawing 498] | > 1000 nM | 45.9 ± 13.5 nM | – | – |
| C#CCn1c(=O)c2c(nc(C#Cc3cccc(OCc4ccoc4)c3)n2C)n(C)c1=O [drawing 479] | > 1000 nM | 66.4 ± 19 nM | – | – |
| C#CCn1c(=O)c2c(nc(C#Cc3ccc(Cl)c(Cl)c3)n2C)n(CC)c1=O [drawing 550] | > 1000 nM | 132 ± 96 nM | – | – |
| C#CCn1c(=O)c2c(nc(C#Cc3ccc(OC)c(OC)c3)n2C)n(Cc2ccsc2)c1=O | > 1000 nM | 28 ± 4.2 nM | – | – |
| C#CCn1c(=O)c2c(nc(C#Cc3ccc(OC)c(OC)c3)n2C)n(CCCF)c1=O | ≥ 1000 nM | 16.3 ± 2.8 nM | – | – |
| C#CCn1c(=O)c2c(nc(C#Cc3cccc(OCC=C)c3)n2C)n(C)c1=O | ≥ 10000 nM | 152 ± 63 nM | – | – |
| C#CCn1c(=O)c2c(nc(C#Cc3ccc(OC)c(OC)c3)n2C)n(Cc2ccoc2)c1=O [drawing 509] | > 1000 nM | 5.16 ± 1.91 nM | – | – |
| C#CCn1c(=O)c2c(nc(C#Cc3cccc(OCC)c3)n2C)n(C)c1=O | ~10000 nM | 174 ± 42 nM | – | – |
| C#CCn1c(=O)c2c(nc(C#Cc3ccc4c(c3)OCO4)n2C)n(CC)c1=O | > 1000 nM | 29.6 ± 6.1 nM | – | – |
| C#CCn1c(=O)c2c(nc(C#Cc3ccccc3)n2C)n(C)c1=O [drawing 552] | – | – | – | 314 ± 71 nM |
| C#CCn1c(=O)c2c(nc(C#Cc3cccc(OC)c3)n2C)n(CCCO)c1=O [drawing 484] | 142 ± 8 nM | 11.8 ± 1.6 nM | – | – |
| C#CCn1c(=O)c2c(nc(C#Cc3ccc(OC)c(F)c3)n2C)n(C)c1=O | > 1000 nM | 194 ± 39 nM | – | – |
| C#CCn1c(=O)c2c(nc(C#Cc3cccc(OC)c3)n2C)n(CCO)c1=O [drawing 491] | > 1000 nM | 103 ± 15 nM | – | – |
